US20260315499A1, “2'- {HETEROCYCLYL (ARYL/ALKYL) METHYL} - CANNABIDIOL COMPOUNDS AND PROCESS FOR PREPARATION THEREOF” (COUNCIL OF SCIENTIFIC & INDUSTRIAL RESEARCH, priority 2023, published 2026)
Where “and” joins values, the source holds several entries; their conditions need not be identical. Identical values can stand only once. Like-named read-outs stand apart in the source and are kept apart here.

Tests used:
depression mice model [1] = test: In vivo corticosterone induced depression model: sucrose preference test; parameters: species or system mouse (male C57); conditions: 2% sucrose, 21 days
Protocol: (§1) In vivo efficacy (ameliorates behavioral despair) of A1 in corticosterone induced model of stress (J. Neurochem., 2018 146, 722 734). […] A1 (20 mg/kg, oral) dissolved in normal saline was given for 3 consecutive weeks following corticosteroid stress. The sucrose preference test was employed, tail suspension test, and forced swim test to evaluate behavioral distress. We noticed that A1 can resurrect mice in stressful situations. […]
Sucrose consumption was employed to evaluate anhedonia, a core hallmark of depression in mice. The animals were allowed unfettered access to both identical bottles, one containing water while the other contained a 2% solution of sucrose, for 21 days.
The below equation was later employed to determine water and sugar consumed by mice:
Sucrose Preference=Sucrose consumed[…]/Total fluid intake.

depression mice model [2] = test: In vivo corticosterone induced depression model: Tail Suspension Test (TST); parameters: species or system mouse (male C57)
Protocol: A1 (20 mg/kg, oral) dissolved in normal saline was given for 3 consecutive weeks following corticosteroid stress. The sucrose preference test was employed, tail suspension test, and forced swim test to evaluate behavioral distress.
Tail Suspension Test (TST) is a behavioral test employed to assess perturbations expected to influence depression like phenotypes. TST is grounded on the reflection that the extent of immobility is allied with depressing phenotype of mice overturned by antidepressants. Mice were positioned 2 cm from their tail tips and 5 cm above the ground suspending the tails using adhesive tape for the free movement (Acta Neuropathol Commun., 2016, 4(1), 108).
The contemporary immobility was alluded to as interruption in motion, where a blind assessor evaluates the disappointed aspect of display before scoring it.

[3] = In vivo corticosterone induced depression model: effect on body weight; parameters: species or system mouse (male C57); conditions: 21 days
Protocol: as §1

depression mice model [4] = test: In vivo corticosterone induced depression model: Forced Swim Test; parameters: species or system mouse (male C57)
Protocol: as §1
The forced swim test was employed to evaluate behavioral melancholy in depressed subjects. Each animal was individually conditioned in a glass cylinder 20 cm long, 10 cm deep and 14 cm radius of curvature. After being submerged in water for 5 mins, the mice's cumulative stationary episode, struggle in water, and eventual floating condition were evaluated. The duration for which the animals were motionless while attempting to hold both of their front limbs still was calculated by interpreting the visualizations portraying behavioral despair (Front Behav Neurosci., 2018, 12, 42).

p-AKT 473 = test: Survival pathway protein expression by western blotting in SHSY5Y; assay type: cell-based, human; conditions: for Relative Protein Expression PAKT 473: 6 hrs
Protocol: (§2) Here, A1 was tested to find its role in eliciting survival pathway proteins in differentiated human neuroblastoma cells in concentration and time dependent manner.
To investigate the effect of A1 on the survival proteins, […] of survival proteins, including p-Erk 44/42, p-AKT 473, Anti BDNF, and p TrkB 816 and p TrKB 515 by western blotting.

[5] = tested on: differentiated SHSY5Y cell cultures; test: Neuroprotective potential in differentiated SHSY5Y after 96 hrs, concentration series with and without corticosterone; assay type: cell-based, human; conditions: DHF 5 nM, without Cort, 96 hrs
p TrkB 515 [6] = test: Survival pathway protein expression by western blotting in SHSY5Y; assay type: cell-based, human; conditions: DHF/Cort., 6 hrs
[7] = tested on: differentiated SHSY5Y cell cultures; test: Neuroprotective potential in differentiated SHSY5Y after 96 hrs, concentration series with and without corticosterone; assay type: cell-based, human; conditions: DHF 5 nM + Cort 400 μM, 96 hrs
Description: Furthermore, A1 intervention in presence of corticosterone evidenced neuroprotective effect against corticosterone induced impairment and cell death.

p TrkB 816 [8] = test: Survival pathway protein expression by western blotting in SHSY5Y; assay type: cell-based, human; conditions: DHF/Cort., 6 hrs
p-Erk 44/42 [9] = test: as above; assay type: cell-based, human; conditions: for Relative Protein Expression p ERK 44/42: 6 hrs
Protocol: as §2
(§3) To investigate the effect of A1 on the survival proteins, SHSY5Y cell cultures were treated with different concentrations for 6 hrs and analyzed for the expression of survival proteins, including p-Erk 44/42, p-AKT 473, Anti BDNF, and p TrkB 816 and p TrKB 515 by western blotting.

p TrkB 816 [10] = test: as above; assay type: cell-based, human; conditions: for Relative Protein Expression p TrkB 816: 6 hrs
Protocol: as §2, §3

p TrkB 515 [11] = test: as above; assay type: cell-based, human; conditions: for Relative Protein Expression p TrkB 515: 6 hrs
Protocol: as §2, §3

Anti BDNF [12] = test: as above; assay type: cell-based, human; conditions: for Relative Protein Expression Anti BDNF: 6 hrs
Protocol: as §2, §3

Anti BDNF [13] = test: as above; assay type: cell-based, human; conditions: Cort. 400 μM, 6 hrs
p-Erk 44/42 [14] = test: as above; assay type: cell-based, human; conditions: Cort. 400 μM, 6 hrs
TrkB stable cells SHSY5Y = test: Cytoprotective effect in TrkB stable cells SHSY5Y, 96 hrs; assay type: cell-based, human; conditions: Homo sapiens, SH-SY5Y, 96 h
Protocol: In another experiment, the cytoprotective effect of A1 as well as parent molecule B1 was determined in TrkB stable cells SHSY5Y.

[15] = Cell viability assay in macrophage RAW264.7 cells (MTT); assay type: cell-based; conditions: mouse, read-out: % cell viability ± SD
Protocol: RAW264.7 cells were seeded in 96-well cell culture plates at a density of 1×10^4 cells per well and incubated overnight at 37° C. with 5% CO2. Next day, the cells were treated with CBD or its derivatives at 5 μM and/or 10 μM concentration for 24 hrs. The MTT dye (2.5 mg/ml, 20 μL) was added to each well 4 hrs before termination (Molecules. 2022, 27, 8068). After 4 hrs of incubation with MTT, the supernatant was discarded, and the formazan crystals were dissolved by adding 100 μL DMSO. The absorbance was recorded at 540 nm on microplate reader (Tecan Infinite Pro).

[16] = tested on: nitric oxide (NO) production in RAW264.7 macrophages; test: In vitro anti-inflammatory activity: nitric oxide production (Griess) in LPS-exposed RAW264.7 macrophages; assay type: cell-based, mouse; conditions: LPS 24 hrs
Protocol: Measurement of Nitric oxide: RAW264.7 macrophages were seeded in 96-well plates with a density of 0.5×10^5 cells/well and incubated overnight at 37° C. in a 5% CO2 atmosphere. The cells were treated with different concentration of CBD and its analogues and exposed to LPS for 24 hrs. For nitric oxide (NO) determination, the cell culture supernatant was taken and mixed with equal volume of Griess reagent in another 96 well plate at room temperature (Biomed Pharmacother., 2017, 92, 175-186). The absorbance was measured at 540 nm. The final calculations were determined on a NaNO2 standard curve.

[17] = Cell viability assay in differentiated neuronal cells (MTT), N2A; assay type: cell-based; conditions: mouse, read-out: % Cell viability ± SD, N2A
Description: (§4) In the present disclosure outlined herein, a focused library of cannabidiol analogues were studied for possible neuro-protective potential employing cell line-based stress model systems which mimic the biological stress conditions in vitro (J Cell Biochem., 2018, 119(8), 6482-6491).
(§5) Human neuroblastoma cells (SHSY5Y) and mouse neuroblastoma cells (N2A) were procured from American Type Culture Collection (ATCC). SHSY5Y cell cultures were maintained in DMEM F12 (Invitrogen) whereas N2A were cultured in DMEM (Invitrogen) with 10% Fetal Bovine Serum (Gibco) medium, subjected to differentiation to acquire neuronal morphology (employing differentiation media DMEM-F12, 3-5% FBS, (For differentiation, low concentration of FBS was used) and 50 μM retinoic acid). Differentiated cells were later seeded into 96 well plates, at a density of 1×10^4 before being incubated for 48 hrs with the synthesized library. The exhausted culture media was substituted with new culture media containing 0.5 mg/ml MTT dye. Eventually, the OD at 490 nm excitation was measured using a 96-well plate reader. The proportion of viable cells was determined as percentage of absorbance of untreated cultures relative to control.

[18] = Cell viability assay in differentiated neuronal cells (MTT), SHSY5Y; assay type: cell-based; conditions: human, read-out: % Cell viability ± SD, SHSY5Y
Description: as §4, §5

[19] = without Cort., A1 20 mg/kg, fluoxetine 18 mg/kg
[20] = Cort. alone, listed as corticosterone

## CNCCC(Oc1ccc(C(F)(F)F)cc1)c1ccccc1 (stereo not drawn) [Fluoxetine]
Depression mice model [1]; with Cort.
  % Sucrose consumption (ml) ± SD: 72.39 ± 2.69%
Depression mice model [1]; without Cort.
  % Sucrose consumption (ml) ± SD: 82.10 ± 0.29%
Depression mice model [2]; with Cort. 35 μg/ml, A1 20 mg/kg, fluoxetine 18 mg/kg
  % Latency to immobility (sec) ± SD: 34.79 ± 6.38 s
Depression mice model [2]; with Cort. 35 μg/ml, A1 20 mg/kg, fluoxetine 18 mg/kg, listed as fluoxetine
  % Latency to immobility (sec) ± SD: 34.79 ± 6.38 s
Depression mice model [2]; [19]
  % Immobility (sec) ± SD (dead time): 19.61 ± 7.90 s and 19.61 s
  % Latency to immobility (sec) ± SD: 49.51 ± 7.84 s and 49.51 ± 7.82 s
[3]; with Cort. 35 μg/ml, A1 20 mg/kg oral, fluoxetine 18 mg/kg
  Weight (g) ± SD: 38 ± 2.16 g
[3]; without Cort., A1 20 mg/kg oral, fluoxetine 18 mg/kg
  Weight (g) ± SD: 40.42 ± 2.25 g
Depression mice model [4]; with Cort.
  % Immobility (sec) ± SD (dead time): 47.84 ± 10.33 s
  % Latency to immobility (sec) ± SD: 34.06 ± 11.21 s
Depression mice model [4]; with Cort., listed as fluoxetine
  % Immobility (sec) ± SD (dead time): 47.84 ± 10.33 s
Depression mice model [4]; without Cort.
  % Immobility (sec) ± SD (dead time): 22.39 ± 4.91 s
  % Latency to immobility (sec) ± SD: 55.34 ± 15.71 s

## O=c1cc(-c2ccccc2)oc2c(O)c(O)ccc12 [DHF, reference compound]
p-AKT 473; DHF 5 nM
  Relative Protein Expression PAKT 473: 1.42
p-AKT 473; DHF/Cort.
  Relative Protein Expression PAKT 473: 0.96
[5]
  Cell viability: 113.7
P TrkB 515 [6]
  Relative Protein Expression p TrkB 515: 2.11
[7]
  Cell viability: 104.3
P TrkB 816 [8]
  Relative Protein Expression p TrkB 816: 0.71
p-Erk 44/42 [9]; DHF 5 nM
  Relative Protein Expression p ERK 44/42: 5.28
p-Erk 44/42 [9]; DHF/Cort.
  Relative Protein Expression p ERK 44/42: 5.00
P TrkB 816 [10]; DHF 5 nM
  Relative Protein Expression p TrkB 816: 1.55
P TrkB 515 [11]; DHF 5 nM
  Relative Protein Expression p TrkB 515: 2.43
Anti BDNF [12]; DHF 5 nM
  Relative Protein Expression Anti BDNF: 1.03
Anti BDNF [12]; DHF/Cort.
  Relative Protein Expression Anti BDNF: 0.53

## C[C@]12C[C@H](O)[C@H]3[C@@H](CCC4=CC(=O)CC[C@@]43C)[C@@H]1CC[C@@H]2C(=O)CO [Cort., corticosterone, reference compound]
p-AKT 473; Cort. 400 μM
  Relative Protein Expression PAKT 473: 0.01
p-AKT 473; after corticosterone insult
  p-AKT 473 level (in words): decrease
Depression mice model [1]; Cort. alone, negative control
  % Sucrose consumption (ml) ± SD: 43.50 ± 3.35%
Depression mice model [1]; Cort. alone, negative control, listed as corticosterone
  % Sucrose consumption (ml) ± SD: 43.50±3.35%
Depression mice model [2]; Cort. alone
  % Immobility (sec) ± SD (dead time): 52.32 ± 9.96 s
  % Latency to immobility (sec) ± SD: 6.97 ± 4.52 s
Depression mice model [2]; [20]
  % Immobility (sec) ± SD (dead time): 52.32 ± 9.96 s
  % Latency to immobility (sec) ± SD: 6.97 ± 4.52 s
Anti BDNF [13]
  Relative Protein Expression Anti BDNF: 0.10
[3]; Cort. alone 35 μg/ml, negative control
  Weight (g) ± SD: 29.57 ± 3.90 g
[3]; Cort. alone 35 μg/ml, negative control, listed as corticosterone
  Weight (g) ± SD: 27.40 ± 1.91 g
Depression mice model [4]; Cort. alone 35 μg/ml
  % Immobility (sec) ± SD (dead time): 67.15 ± 12.32 s
  % Latency to immobility (sec) ± SD: 16.14 ± 5.68 s
p-Erk 44/42 [9]; after corticosterone insult
  p-Erk 44/42 level (in words): decrease
P TrkB 816 [10]; Cort. 400 μM
  Relative Protein Expression p TrkB 816: 0.36
P TrkB 816 [10]; after corticosterone insult
  p TrkB 816 level (in words): decrease
P TrkB 515 [11]; Cort. 400 μM
  Relative Protein Expression p TrkB 515: 0.15
P TrkB 515 [11]; after corticosterone insult
  p TrkB 515 level (in words): decrease
Anti BDNF [12]; after corticosterone insult
  anti BDNF level (in words): decrease
p-Erk 44/42 [14]
  Relative Protein Expression p ERK 44/42: 0.36

## C=C(C)[C@@H]1CCC(C)=C[C@H]1c1c(O)cc(CCCCC)cc1O [B1, cannabidiol]
TrkB stable cells SHSY5Y; read-out: % Cell viability ± SD, test compound 20 μM + Cort. 400 μM, 96 hrs
  viability at 20 µM: 86.7 ± 1.16%
TrkB stable cells SHSY5Y; read-out: % Cell viability ± SD, test compound alone, 20 μM, 96 hrs
  viability at 20 µM: 102 ± 1.06%
[15]; RAW264.7, 5 μM
  viability at 24 h, 5 µM: 95.5 ± 1.5%
[15]; RAW264.7, 10 μM
  viability at 24 h, 10 µM: 91 ± 1.6%
[16]; Mus musculus, RAW264.7, 5 μM, read-out: % NO Inhibition ± SD
  inhibition at 5 µM: 24.3 ± 3.2%
[16]; Mus musculus, RAW264.7, 10 μM, read-out: % NO Inhibition ± SD
  inhibition at 10 µM: 38.3 ± 3.7%
[16]; pre-treated
  production of NO (in words): decreased
[17]
  viability at 48 h, 20 µM: 107 ± 1.53%
[18]
  viability at 48 h, 20 µM: 108 ± 1.13%
